Where a name gives a salt, the structure may show the parent alone. Read-outs that look alike come from different tables or passages of the source.
Key:
[1] = system: cultured rat trigeminal ganglion cells; conditions: carbon dioxide treatment of cultures under isohydric conditions; cited from earlier work
episodic migraine = conditions: continuous carbon dioxide infusion; cited from earlier work
[2] = cited from earlier work
[3] = system: post-surgical recalcitrant CRS without polyps; assay: Example #11: placebo controlled study of fluticasone with Breath Powered liquid device; assay type: in vivo, human; conditions: 12 weeks
Method: Using the same drug-device combination product as Example #10, a small placebo controlled study (N=20) was performed in patients with post-surgical recalcitrant CRS without polyps, producing clinically significant improvements on both objective measures and subjective symptoms.

[4] = system: chronic rhinosinusitis (CRS) with nasal polyps; assay: Example #10: 3-month placebo controlled study of fluticasone with Breath Powered liquid device; assay type: in vivo, human
[5] = Fluticasone bioavailability at higher Breath Powered doses; assay type: in vivo, human; conditions: 400 ug or 800 ug twice daily as compared to 200 ug daily conventionally
single migraine attack = assay: Example #1: headache relief after 16 mg intranasal Breath Powered sumatriptan vs 100 mg oral sumatriptan; assay type: in vivo, human
Description: The purpose of this study was to study the onset of headache relief following a dose of sumatriptan. The study population included 436 subjects.
Headache relief is defined as a reduction from moderate (grade 2) or severe (grade 3) to none (grade 0) or mild (grade 1) pain.

migraine headaches = assay: Examples #4/#7: double-blind crossover head-to-head study, Breath Powered sumatriptan vs 100 mg tablet, blinded pooled data; assay type: in vivo, human; conditions: 16 mg nasal with placebo tablet; scenario inferred from blinded data
Method: The study is a cross-over design where each patient enrolled will treat headaches with each of the treatments. Specifically, patients will treat up to 5 headaches with a treatment and then cross over to treat up to 5 headaches with the other. With each headache, the patient uses the device and takes a tablet, only one of which will be active. From data on over 400 headaches, as yet unblinded, the results obtained at the 30 min timepoint (headache relief 30 minutes after taking medication) for moderate or severe headaches is 54%.
One set of data include blinded head-to-head (H2H) results. They generally show a high response rate In blinded data, i.e., a reduction from severe/moderate migraine or mild or none.

[6] = Example #3: sumatriptan PK in nitroglycerin (GTN)-induced migraine vs healthy subjects; conditions: human, in vivo, Breath Powered device

Q: Which results are given for `O=C=O` [carbon dioxide]?
A: effect on CGRP secretion [1]: significantly repressed the stimulatory effects of KCI, capsaicin, and nitric oxide on CGRP secretion; 2-hour pain free response (episodic migraine): 25.0%

Q: With `CN(C)CCc1c[nH]c2ccc(C[C@H]3COC(=O)N3)cc12` [zolmitriptan] as the molecule, how does the “nasal fraction of the total absorption” value ([2]; conventional nasal spray) read?
A: approximately 30%

Q: Which bioavailability ([2]; administered intranasally) does the source give for `CN1C[C@H](C(=O)N[C@]2(C)O[C@@]3(O)[C@@H]4CCCN4C(=O)[C@H](Cc4ccccc4)N3C2=O)C[C@@H]2c3cccc4[nH]cc(c34)C[C@H]21` [DHE, dihydroergotamine mesylate] here?
A: ~40%

Q: And the bioavailability ([2]; given orally)?
A: less than 1%

Q: With `C[C@@H]1C[C@H]2[C@@H]3C[C@H](F)C4=CC(=O)C=C[C@]4(C)[C@@]3(F)[C@@H](O)C[C@]2(C)[C@@]1(O)C(=O)SCF` [fluticasone] as the molecule, how does the “endoscopy score for edema (median scores)” value [3] read?
A: −4.0

Q: And the tolerability ([4]; 400 μg b.i.d., 3 months)?
A: well tolerated

Q: And the “subjects with complete elimination of the polyps” value ([4]; 400 μg b.i.d., after 3 months)?
A: ~20%

Q: And the “proportion of subjects with improvement in summed polyp score” value (“proportion of subjects with improvement” for short) ([4]; 4 weeks)?
A: 22%

Q: What about the “proportion of subjects with improvement” value ([4]; 8 weeks) of the same molecule?
A: 43%

Q: What about the “proportion of subjects with improvement” value ([4]; 12 weeks) of the same molecule?
A: 57%

Q: What about the “change in polyp score” value ([4]; after 12 weeks) of the same molecule?
A: −0.98

Q: What about the summed polyp score ([4]; after 12 weeks, baseline 2.8) of the same molecule?
A: 1.8

Q: And the bioavailability [5]?
A: no significantly greater bioavailability

Q: What does the source list for `CNS(=O)(=O)Cc1ccc2[nH]cc(CCN(C)C)c2c1` [sumatriptan]?
A: response rate (headache relief) at 30 minutes (single migraine attack; 16 mg of sumatriptan in the Breath Powered device and oral tablet placebo): 67%; response rate (headache relief) at 30 minutes (single migraine attack; 100 mg of sumatriptan orally with the placebo device): 39%; suggested response rate at 30 minutes (migraine headaches): 70%; bioavailability ([6]; other: intranasal powder, 7.5 mg delivered to the side of the migraine during a GTN attack in migraineurs): 27%; Cmax ([6]; other: intranasal, 7.5 mg): 11 ng/mL

Source: US20160045687A1, “NASAL ADMINISTRATION” (OPTINOSE AS, priority 2013, published 2016)
